ChEMBL document CHEMBL1201862, “PubChem BioAssay data set” (2004)
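48-hour exposure; five concentrations; linearly interpolated endpoints. GI50: concentration for 50% inhibition of growth.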 Activity calls are given as the source filed them. Cut-off read from the data, not from the text of the source: active = GI50 up to about 1.1 µM and inactive = higher.

Columns and labels:
Test in all cases: NCI anticancer screen, dose series, 48 h
MDA-N = system: MDA-N
Hs-578T = system: Hs-578T
BT-549 = system: BT-549
T47D = system: T47D
SNB-78 = system: SNB-78
KM-20L2 = system: KM-20L2
LXFL 529 = system: LXFL 529
RXF 631 = system: RXF 631

SMILES	GI50 (MDA-N)	GI50 (Hs-578T)	GI50 (T47D)	GI50 (SNB-78)	GI50 (KM-20L2)	other results
Cc1ccc(S(=O)(=O)NNC2Oc3cc4c(cc3C(c3ccccc3O)C2C)OCO4)cc1 (centres undefined)	12.3 µM (inactive)	10.9 µM (inactive)	12 µM (inactive)			GI50 (BT-549): 13 µM (inactive)
NC(CCOCCP(=O)(O)CCC1C=CC=CC1)C(=O)O (centres undefined)	> 100 µM (inactive)	> 100 µM (inactive)	43.3 µM (inactive)			GI50 (BT-549): > 100 µM (inactive)
Nc1c(C(=O)Nc2ccc(C3=NCCN3)cc2)cccc1C(=O)Nc1ccc(C2=NCCN2)cc1				> 83.8 µM (inactive)	> 100 µM (inactive)	
Nc1nc(N)c2c(CCc3ccc(C(=O)N[C@@H](CCC(=O)O)C(=O)O)cc3)ccnc2n1	< 0.0129 µM (active)	52 µM (inactive)	75.5 µM (inactive)			
CC(=O)O[C@H]1[C@@H](OC(C)=O)C(C)(C)/C=C/[C@H](C)C(=O)[C@@]2(OC(C)=O)C[C@@](C)(OC(C)=O)[C@H](OC(C)=O)[C@@H]2[C@H]2OC(=O)CC[C@@]2(OC(=O)c2ccccc2)[C@@H]1OCC(C)C	7.11 µM (inactive)	11.2 µM (inactive)	58.5 µM (inactive)			GI50 (BT-549): 67.6 µM (inactive)
COc1cc2c(cc1Oc1c(Oc3c(O)c(OC)cc4c3C(CC(C)C)N(C)CC4)c(OC)cc3c1C(CC(C)C)N(C)CC3)C(CC(C)C)N(C)CC2 (centres undefined)				1.13 µM (inactive)	0.698 µM (active)	
Cn1c(=O)ccc2c(=O)c3ccccc3oc21	> 100 µM (inactive)	> 100 µM (inactive)	> 100 µM (inactive)			
C=C1CC(OC)(C(O)C(=O)N[C@H]2OCO[C@H]3C2O[C@H](C[C@@H](CO)OC)C(C)(C)C3OC)O[C@H](C)[C@@H]1C (some centres undefined)					< 0.00931 µM (active)	
O=C(NN1C(=O)C(Cl)C1c1cccc([N+](=O)[O-])c1)c1ccccc1O (centres undefined)					> 100 µM (inactive)	GI50 (LXFL 529): > 100 µM (inactive)
CC(=O)Nc1ccc(C2=N/C(=C\c3ccc(Cl)c(Cl)c3)C(=O)O2)cc1				> 100 µM (inactive)	> 100 µM (inactive)	GI50 (LXFL 529): > 100 µM (inactive); GI50 (RXF 631): > 100 µM (inactive)
O=C(/C=C/CC(O)(c1ccccc1)c1ccccc1)Nc1ccccc1Cl					> 100 µM (inactive)	GI50 (LXFL 529): > 100 µM (inactive)
O=C(Nc1ccc([N+](=O)[O-])cc1[N+](=O)[O-])C(=O)C(C(=O)c1ccc2ccccc2c1)C1OC(=O)c2ccccc21 (centres undefined)				21.4 µM (inactive)	25.1 µM (inactive)	GI50 (LXFL 529): 10.5 µM (inactive); GI50 (RXF 631): 16.6 µM (inactive)
COc1ccccc1N1C(Cl)C(=O)C1c1c[nH]c2ccccc12 (centres undefined)					> 100 µM (inactive)	GI50 (LXFL 529): > 100 µM (inactive)
CN(c1ccccc1)c1c(-c2ccccc2)c(=O)oc2c1ccc1occc12				> 100 µM (inactive)		
CC1C(NNC(N)=O)Oc2cc3c(cc2C1c1ccccc1O)OCO3 (centres undefined)	22.3 µM (inactive)	25.3 µM (inactive)	38.6 µM (inactive)			GI50 (BT-549): 52.6 µM (inactive)
CCCCCCCCCCCCCCCCOCC(COP(=O)([O-])OCC[N+](C)(C)C)OCCCCCCCCCCCCCCCC (centres undefined)				> 100 µM (inactive)	> 100 µM (inactive)	
CC(C)(CCCCC(C)(C)NC1=NCCO1)NC1=NCCO1	> 10 µM (inactive)	> 10 µM (inactive)	> 10 µM (inactive)			
Cn1c(=O)nc2n(-c3ccc(Cl)cc3Cl)c3ccccc3nc-2c1=O				14.6 µM (inactive)	0.861 µM (active)	
